Key:
β3 Transgenic(Tg) Mice = test: Thermogenesis (Oxymax indirect calorimetry) in β3 transgenic mice; conditions: percent increase in thermogenesis over baseline; female FVB β3 transgenic mice; i.p. 0.1-20 mg/kg or oral 1.0-30 mg/kg
β3 Knockout(KO) Mice = test: Thermogenesis (Oxymax indirect calorimetry) in β3 knockout mice; conditions: percent increase in thermogenesis over baseline; female FVB β3 knockout mice; i.p. 0.1-20 mg/kg or oral 1.0-30 mg/kg
[1] = biological target: T1, human β3 adrenergic receptor (Homo sapiens, UniProt P13945); test: cAMP (SPA) response in CHO cells transfected with human β3 adrenergic receptor; format: cell-based; set-up: key: fraction of maximal isoproterenol (10^-5 M) response; conditions: maximal response relative to maximal response of isoproterenol at 10^-5 M
T1 construct: Full length β3 AR clones (402 amino acids) containing the last 6 amino acids of hβ3-AR are prepared; expressed in transfected cells; host or cells: CHO (Chinese hamster ovary) cells
In short: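 Reactions were stopped with 0.2N HCl and neutralised, and cAMP was measured by SPA. Activity is expressed as percent of the maximal 10^−5 M isoproterenol response.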

T1 sequence (P13945 whole entry): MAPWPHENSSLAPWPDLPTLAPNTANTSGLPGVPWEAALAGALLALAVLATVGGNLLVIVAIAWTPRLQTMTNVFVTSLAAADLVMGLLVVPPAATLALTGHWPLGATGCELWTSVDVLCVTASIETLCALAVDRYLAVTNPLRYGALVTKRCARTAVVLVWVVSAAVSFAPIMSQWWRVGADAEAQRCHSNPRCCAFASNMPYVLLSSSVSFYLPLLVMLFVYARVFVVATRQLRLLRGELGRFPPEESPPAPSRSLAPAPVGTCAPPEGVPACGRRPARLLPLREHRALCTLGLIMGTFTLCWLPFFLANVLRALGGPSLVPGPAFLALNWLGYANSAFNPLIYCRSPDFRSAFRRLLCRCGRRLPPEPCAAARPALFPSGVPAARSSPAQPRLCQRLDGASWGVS

Row | SMILES | melting point | IA(β3) [1] | Thermogenesis (Tg mice) (β3 Transgenic(Tg) Mice) [%] | Thermogenesis (KO mice) (β3 Knockout(KO) Mice) [%]
1 | CS(=O)(=O)Nc1cc(C(O)CNC2CCN(c3ccc(CC4SC(=O)NC4=O)cc3)CC2)ccc1O [Example 84, N-[5-((2R)-2-{1-[4-(2,4-Dioxo-thiazolidin-5-ylmethyl}-phenyl]-piperidin-4-ylamino}-1-hydroxy-ethyl)-2-hydroxy-phenyl]-methanesulfonamide] | > 180 °C (dec.) |  | 30 ± 4 | −2 ± 4
2 | CCOC(=O)c1ccc(N2CCC(NC[C@H](O)c3ccc(O)c(NS(C)(=O)=O)c3)CC2)cc1 [Example 180, {4-[(2R)-2-Hydroxy-2-(4-hydroxy-3-methanesulfonylamino-phenyl)-ethylamino]-piperidin-1-yl}-benzoic acid ethyl ester] |  | 1 | 42 ± 4 | 9 ± 5
3 | CS(=O)(=O)Nc1cc([C@@H](O)CNC2CCN(c3ccc(C(=O)O)cc3)CC2)ccc1O [Example 186, 4-{4-[(2R)-2-Hydroxy-2-(4-hydroxy-3-methanesulfonylamino-phenyl)-ethylamino]-piperidin-1-yl}-benzoic acid] | > 85 °C (dec.) | 1.1 | 77 ± 12 | 16 ± 7
4 | CCOC(=O)C(=Cc1ccc(N2CCC(NC[C@H](O)c3ccc(O)c(NS(C)(=O)=O)c3)CC2)cc1)C(=O)O [Example 189, 2-(4-{4-[(2R)-2-Hydroxy-2-(4-hydroxy-3-methanesulfonylamino-phenyl)-ethylamino]-piperidin-1-yl}-benzylidene)-malonic acid monoethyl ester] | > 170 °C (dec.) | 1.3 | 33 ± 7 | 6 ± 3
5 | COC(=O)[C@@H]1CCCN1C(=O)c1ccc(N2CCC(NC[C@H](O)c3ccc(O)c(NS(C)(=O)=O)c3)CC2)cc1 [Example 200, 1-(4-{4-[(2R)-2-Hydroxy-2-(4-hydroxy-3-methanesulfonylamino-phenyl)-ethylamino]-piperidin-1-yl}-benzoyl)-pyrrolidine-(2S)-2-carboxylic acid methyl ester] | > 80 °C (dec.) | 1.1 |  | 
6 | CCOC(=O)[C@@H](NC(=O)c1ccc(N2CCC(NC[C@H](O)c3ccc(O)c(NS(C)(=O)=O)c3)CC2)cc1)C(C)C [Example 202, (2S)-2-(4-{4-[(2R)-2-Hydroxy-2-(4-hydroxy-3-methanesulfonylamino-phenyl)-ethylamino]-piperidin-1-yl}-benzoylamino)-3-methyl-butyric acid ethyl ester] | > 85 °C (dec.) | 1.2 |  | 
7 | COC(=O)[C@H](Cc1ccccc1)NC(=O)c1ccc(N2CCC(NC[C@H](O)c3ccc(O)c(NS(C)(=O)=O)c3)CC2)cc1 [Example 204, (2S)-2-(4-{4-[(2R)-2-Hydroxy-2-(4-hydroxy-3-methanesulfonylamino-phenyl)-ethylamino]-piperidin-1-yl}-benzoylamino)-3-phenyl-propionic acid methyl ester] | > 98 °C (dec.) | 1.2 |  | 
8 | COC(=O)C1(NC(=O)c2ccc(N3CCC(NC[C@H](O)c4ccc(O)c(NS(C)(=O)=O)c4)CC3)cc2)CC1 [Example 206] | > 110 °C (dec.) | 0.94 |  | 
9 | CCCCN(CC(=O)OCC)C(=O)c1ccc(N2CCC(NC[C@H](O)c3ccc(O)c(NS(C)(=O)=O)c3)CC2)cc1 [Example 207, [Butyl-(4-{4-[(2R)-2-hydroxy-2-(4-hydroxy-3-methanesulfonylamino-phenyl)-ethylamino]-piperidin-1-yl}-benzoyl)-amino]-acetic acid ethyl ester] | > 60 °C (dec.) | 1 |  | 
10 | COC(=O)CNC(=O)c1ccc(N2CCC(NC[C@H](O)c3ccc(O)c(NS(C)(=O)=O)c3)CC2)cc1 [Example 208, Methyl[(4-{4-[((2R)-2-hydroxy-2-{4-hydroxy-3-[(methylsulfonyl)amino]phenyl}ethyl)amino]-1-piperidinyl}benzoyl)amino]acetate] | > 75 °C (dec.) | 0.97 |  | 
11 | COC(=O)[C@H](CC(C)C)NC(=O)c1ccc(N2CCC(NCC(O)c3ccc(O)c(NS(C)(=O)=O)c3)CC2)cc1 (stereo partly drawn) [Example 209, (2S)-2-(4-{4-[2-Hydroxy-2-(4-hydroxy-3-methanesulfonylamino-phenyl)-ethylamino]-piperidin-1-yl}-benzoylamino)-4-methyl-pentanoic acid methyl ester] | > 90 °C (dec.) | 1 |  | 
12 | CS(=O)(=O)Nc1cc([C@@H](O)CNC2CCN(c3ccc(/C=C/C(=O)O)cc3)CC2)ccc1O [Example 210, (2E)-3-(4-{4-[(2R)-2-Hydroxy-2-(4-hydroxy-3-methanesulfonylamino-phenyl)-ethylamino]-piperidin-1-yl}-phenyl)-acrylic acid] | 220 °C | 1.36 |  | 
13 | CC(C)C[C@@H](CO)NC(=O)c1ccc(N2CCC(NC[C@H](O)c3ccc(O)c(NS(C)(=O)=O)c3)CC2)cc1 [Example 211, 4-{4-[((2R)-2-Hydroxy-2-{4-hydroxy-3-[(methylsulfonyl)amino]phenyl}ethyl)amino]-1-piperidinyl}-N-[(1S)-1-(hydroxymethyl)-3-methylbutyl]benzamide] | 120 to 122 °C | 1 |  | 
14 | CS(=O)(=O)Nc1cc([C@@H](O)CNC2CCN(c3ccc(C(=O)N[C@H]4CCCCNC4=O)cc3)CC2)ccc1O [Example 212] | 135 to 137 °C | 1.1 |  | 
15 | CCCCN(Cc1nnn[nH]1)C(=O)c1ccc(N2CCC(NC[C@H](O)c3ccc(O)c(NS(C)(=O)=O)c3)CC2)cc1 [Example 213, N-Butyl-4-{4-[((2R)-2-hydroxy-2-{4-hydroxy-3-[(methylsulfonyl)amino]phenyl}-ethyl)amino]-1-piperidinyl}-N-(1H-tetraazol-5-ylmethyl)benzamide] | 168 to 170 °C | 0.97 |  | 
16 | CCCC(=O)Nc1ccc(N2CCC(NC[C@H](O)COc3cccc4[nH]c(=O)[nH]c34)CC2)cc1 [Example 386, N-{4-[4-({(2S)-2-Hydroxy-3-[(2-oxo-2,3-dihydro-1H-benzimidazol-4-yl)oxy]propyl}-amino)-1-piperidinyl]phenyl}butanamide] | 190 to 201 °C | 0.89 |  | 
17 | CCCC(=O)Nc1ccc(N2CCC(NC[C@H](O)COc3cccc4[nH]c5ccccc5c34)CC2)cc1 [Example 387, N-[4-(4-{[(2S)-3-(9H-Carbazol-4-yloxy)-2-hydroxypropyl]amino}-1-piperidinyl)phenyl]butanamide] | 194 to 199 °C | 0.56 |  | 

Second part, led by results:

Row | melting point | IA(β3) [1] | SMILES | Thermogenesis (Tg mice) (β3 Transgenic(Tg) Mice) [%] | Thermogenesis (KO mice) (β3 Knockout(KO) Mice) [%]
18 | 77 to 84 °C | 0.75 | COc1ccc(C(=O)Nc2ccc(N3CCC(NC[C@H](O)COc4ccc(O)cc4)CC3)cc2)cc1OC [Example 388, N-[4-(4-{[(2S)-2-Hydroxy-3-(4-hydroxyphenoxy)propyl]amino}-1-piperidinyl)phenyl]-3,4-dimethoxybenzamide] |  | 
19 | 183 to 191 °C | 0.61 | COc1ccc(C(=O)Nc2ccc(N3CCC(NC[C@H](O)COc4cccc5[nH]c6ccccc6c45)CC3)cc2)cc1OC [Example 389, N-[4-(4-{[(2S)-3-(9H-Carbazol-4-yloxy)-2-hydroxypropyl]amino}-1-piperidinyl)phenyl]3,4-dimethoxybenzamide] |  | 
20 | 160 to 169 °C | 0.82 | O=C(Nc1ccc(N2CCC(NC[C@H](O)COc3cccc4[nH]c(=O)[nH]c34)CC2)cc1)c1ccc2c(c1)OCO2 [Example 390, N-{4-[4-({(2S)-2-Hydroxy-3-[(2-oxo-2,3-dihydro-1H-benzimidazol-4-yl)oxy]propyl}-amino)-1-piperidinyl]phenyl}-1,3-benzodioxole-5-carboxamide] |  | 
21 | 217 to 223 °C | 0.81 | O=C(Nc1ccc(N2CCC(NC[C@H](O)COc3cccc4[nH]c5ccccc5c34)CC2)cc1)c1ccc2c(c1)OCO2 [Example 391, N-[4-(4-{[(2S)-3-(9H-Carbazol-4-yloxy)-2-hydroxypropyl]amino}-1-piperidinyl)phenyl]-1,3-benzodioxole-5-carboxamide] |  | 
22 | 140 to 144 °C | 0.9 | O=C(CCC1CCCC1)Nc1ccc(N2CCC(NC[C@H](O)COc3cccc4[nH]c(=O)[nH]c34)CC2)cc1 [Example 392, 3-Cyclopentyl-N-{4-[4-({(2S)-2-hydroxy-3-[(2-oxo-2,3-dihydro-1H-benzimidazol-4-yl)oxy]propyl}amino)-1-piperidinyl]phenyl}propanamide] |  | 
23 | 82 to 90 °C | 1 | CS(=O)(=O)Nc1cc([C@@H](O)CNC2CCN(c3ccc(NC(=O)CCC4CCCC4)cc3)CC2)ccc1O [Example 393, 3-Cyclopentyl-N-(4-{4-[((2R)-2-hydroxy-2-{4-hydroxy-3-[(methylsulfonyl)amino]phenyl}-ethyl)amino]-1-piperidinyl}phenyl)propanamide] |  | 
24 | 104 to 113 °C | 1.3 | CS(=O)(=O)Nc1cc([C@@H](O)CNC2CCN(c3ccc(NC(=O)c4ccc5c(c4)OCO5)cc3)CC2)ccc1O [Example 394, N-(4-{4-[((2R)-2-Hydroxy-2-{4-hydroxy-3-[(methylsulfonyl)amino]phenyl}ethyl)amino]-1-piperidinyl}phenyl)-1,3-benzodioxole-5-carboxamide] |  | 

From patent publication US7022716B2, “Cyclic amine phenyl beta-3 adrenergic receptor agonists” (Wyeth, priority 2000, dated 2006)
